Source: patent US8058285B2, “Substituted pyrido [3′, 2′: 4, 5] thieno [3, 2-D] pyrimidines and pyrido [3′, 2′: 4, 5] furo [3, 2-D] pyrimidines used as inhibitors of the PDE-4 and/or the release of TNF-ALPHA” (The Medicines Company (Leipzig) GmbH, priority 2004, dated 2011)
Values joined by “and” are separate entries in the source; they are usually repeats but may differ in a detail not shown here. Equal values may be shown once. Where a name gives a salt, the structure may show the parent alone.

Biological target: T1, PDE-4A (Homo sapiens, UniProt P27815)
T1 construct: PDE-4A catalytic domain comprising amino acids 342-704; made in house; host or cells: Escherichia coli
T1 sequence (P27815 342-704): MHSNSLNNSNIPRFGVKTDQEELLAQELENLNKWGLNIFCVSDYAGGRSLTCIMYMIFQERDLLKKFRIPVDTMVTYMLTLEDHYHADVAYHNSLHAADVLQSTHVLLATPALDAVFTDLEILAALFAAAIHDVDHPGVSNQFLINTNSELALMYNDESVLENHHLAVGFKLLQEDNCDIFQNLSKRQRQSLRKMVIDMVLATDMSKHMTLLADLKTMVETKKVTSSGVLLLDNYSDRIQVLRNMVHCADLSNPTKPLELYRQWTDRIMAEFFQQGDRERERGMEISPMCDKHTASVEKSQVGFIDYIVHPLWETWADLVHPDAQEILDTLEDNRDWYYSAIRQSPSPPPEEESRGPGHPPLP
Experiment: PDE-4A inhibitory assay (SPA)
Type: biochemical
Excerpt: Human recombinant PDE-4A catalytic domain comprising amino acids 342-704 was cloned into Escherichia coli and expressed, as described by W. Richter et al., Protein Expression and Purification (2000) 19: 375-383. The other posphodiesterases were either obtained from cell lines of human origin (TPH1 monocytes line for PDE-1, MCF7 for PDE-5) or expressed recombinantly in sf9 insect cells (for PDE-3A, PDE-3B, PDE-7A and PDE-4D) in accordance with an adapted method by Luckow, V. A. et al., in: Recombinant DNA Technology & Applications., (1991) eds. Prokop, Bajpai, R. K. & Ho, C. S., pp 97-152.
The phosphodiesterase activity was determined by the SPA assay as described by the manufacturer Amersham Biosciences and by Horton J. K and Baxendale P. M., Methods Mol. Biol. (1995) 41: 91-105.
The reaction mixtures contained 100 mM Tris-HCl (pH 7.5), 5 mM MgCl2, 3.8 mM 2-mercaptoethanol, and 1 μM cAMP or cGMP as a substrate, the inhibitors at different concentrations and also further components required for the detection of the individual isoenzymes (see below). The reaction was started by adding the enzyme. The operating volume is 100 μl in the wells of a white 96-Well microtiter plate. The test substances were produced as stock solutions in DMSO. The DMSO concentration in the reaction batch was 1% v/v. The PDE activity is not impaired with this DMSO concentration. Having started the reaction by the addition of enzyme, the samples were incubated at 22° C. for 20 min. The reaction was stopped by the addition of SPA bead suspension which contains the zinc sulfate concentration provided according to the manufacturer. Then, the beads are allowed to sediment for 30 min and the plates are analyzed on the luminescence microtiter plate reader Fluostar Optima (BMG Labtechologies).
[^3H]-cAMP was used as a substrate for determining the activity of PDE-2, -3, -4 and -7 and [^3H]-cGMP for determining the activity of PDE-5. The non-specific enzyme activities were determined in the presence of 100 μM rolipram (for PDE-4) and in the presence of 100 μM IBMX (for PDE-3 and -5) and subtracted from the test values. The incubation samples of the PDE-3 assay contain 10 μM rolipram to inhibit possible contaminations by PDE-4. The PDE-2 activity is tested using a SPA assay by Amersham Biosciences in the presence of the PDE-2 activator 5 μM cGMP. […] The selectivity as to PDEs 2, 3 and 5 has a factor of 100 to 10 000.

Row | Structure (SMILES) | IC50
1 | Cc1cc(-c2ccccc2)nc2sc3c(N4CCNCC4)nc(OCC(F)F)nc3c12 [2-(2,2-Difluoro-ethoxy)-9-methyl-7-phenyl-4-(piperazin-1-yl)-pyrido[3′,2′:4,5]thieno[3,2-d]pyrimidine] | 2 to 50 nM
2 | CCc1cc(-c2ccc(C)cc2)nc2sc3c(N4CCNCC4)nc(OCCO)nc3c12 [2-(2-Hydroxy-ethoxy)-9-ethyl-7-(4-methyl-phenyl)-4-(piperazin-1-yl)-pyrido[3′,2′:4,5]thieno[3,2-d]pyrimidine] | 2 to 50 nM
3 | CCOc1nc(N2CCNCC2)c2sc3nc(C(C)C)cc(C(C)C)c3c2n1 [2-Ethoxy-7,9-di-iso-propyl-4-(piperazin-1-yl)-pyrido[3′,2′:4,5]thieno[3,2-d]pyrimidine] | 2 to 50 nM
4 | CCOc1ccc(-c2cc(CC)c3c(n2)sc2c(N4CCNCC4)nc(OCC)nc23)cc1 [2-Ethoxy-7-(4-ethoxy-phenyl)-9-ethyl-4-(piperazin-1-yl)-pyrido[3′,2′:4,5]thieno[3,2-d]pyrimidine] | < 2 nM
5 | CCOc1nc(N2CCNCC2)c2sc3nc(C)cc(-c4ccccc4)c3c2n1 [2-Ethoxy-7-methyl-9-phenyl-4-(piperazin-1-yl)-pyrido[3′,2′:4,5]thieno[3,2-d]pyrimidine] | 2 to 50 nM
6 | CCOc1nc(N2CCNCC2)c2sc3nc(-c4ccc5c(c4)OCCO5)cc(CC)c3c2n1 [2-Ethoxy-9-ethyl-7-(2,3-dihydrobenzo[b][1,4]dioxin-6-yl)-4-(piperazin-1-yl)-pyrido[3′,2′:4,5]thieno[3,2-d]pyrimidine] | < 2 nM
7 | CCOc1nc(N2CCNCC2)c2sc3nc(-c4ccc(C)cc4)cc(CC)c3c2n1 [2-Ethoxy-9-ethyl-7-(4-methyl-phenyl)-4-(piperazin-1-yl)-pyrido[3′,2′:4,5]thieno[3,2-d]pyrimidine] | < 2 nM and 2 to 50 nM
8 | CCOc1nc(N2CCNCC2)c2sc3nc(-c4ccc5c(c4)OCO5)cc(C)c3c2n1 [2-Ethoxy-9-methyl-7-(3,4-methylenedioxyphenyl)-4-piperazin-1-yl-pyrido[3′,2′:4,5]thieno-[3,2-d]pyrimidine] | 2 to 50 nM
9 | CCOc1nc(N2CCNCC2)c2sc3nc(-c4ccc(C)cc4)cc(C)c3c2n1 [2-Ethoxy-9-methyl-7-(4-methyl-phenyl)-4-(piperazin-1-yl)-pyrido[3′,2′:4,5]thieno[3,2-d]pyrimidine] | 2 to 50 nM
10 | CCOc1nc(N2CCNCC2)c2sc3nc(N4CCOCC4)cc(C)c3c2n1 [2-Ethoxy-9-methyl-7-morpholino-4-(piperazin-1-yl)-pyrido[3′,2′:4,5]thieno[3,2-d]pyrimidine] | 2 to 50 nM
11 | CCOc1nc(N2CCNCC2)c2sc3nc(-c4cccs4)cc(C)c3c2n1 [2-Ethoxy-9-methyl-7-thien-2-yl-9-methyl-4-(piperazin-1-yl)-pyrido[3′,2′:4,5]thieno[3,2-d]pyrimidine] | 2 to 50 nM
12 | CCOc1nc(N2CCNCC2)nc2c1sc1nc(-c3ccc(-c4ccc(C(=O)OC)cc4N)cc3)nc(C)c12 [2′-Amino-4-(4-ethoxy-9-methyl-2-piperazin-1-yl-thieno[2,3-d:4,5-d′]dipyrimidin-7-yl)-biphenyl-4′-carboxylic acid methyl ester] | < 2 nM
13 | CCOc1nc(N2CCNCC2)nc2c1sc1nc(-c3ccc(-c4ccc(C(=O)O)cc4N)cc3)nc(C)c12 [2′-Amino-4-(4-ethoxy-9-methyl-2-piperazin-1-yl-thieno[2,3-d:4,5-d′]dipyrimidin-7-yl)-biphenyl-4′-carboxylic acid sodium salt] | 2 to 50 nM
14 | Cc1cc(-c2ccccc2)nc2sc3c(OCC(F)F)nc(N4CCNCC4)nc3c12 [4-(2,2-Difluoro-ethoxy)-9-methyl-7-phenyl-2-(piperazin-1-yl)-pyrido[3′,2′:4,5]thieno[3,2-d]pyrimidine] | 2 to 50 nM
15 | Cc1cc(-c2ccccc2)nc2sc3c(OCCO)nc(N4CCNCC4)nc3c12 [4-(2-Hydroxy-ethoxy)-9-methyl-7-phenyl-2-(piperazin-1-yl)-pyrido[3′,2′:4,5]thieno[3,2-d]pyrimidine] | 2 to 50 nM
16 | CCOc1nc(N2CCNCC2)nc2c1sc1nc(-c3ccc(-c4cccc(C(=O)OC)c4)cc3)nc(C)c12 [4-(4-Ethoxy-9-methyl-2-piperazin-1-yl-thieno[2,3-d:4,5-d′]dipyrimidin-7-yl)-biphenyl-3′-carboxylic acid methyl ester] | 2 to 50 nM

Row | Structure (SMILES) | IC50
17 | CCOc1nc(N2CCNCC2)nc2c1sc1nc(-c3ccc(-c4cccc(C(=O)O)c4)cc3)nc(C)c12 [4-(4-Ethoxy-9-methyl-2-piperazin-1-yl-thieno[2,3-d:4,5-d′]dipyrimidin-7-yl)-biphenyl-3′-carboxylic acid potassium salt] | 2 to 50 nM
18 | CCOC(=O)c1ccc(-c2ccc(-c3nc(C)c4c(n3)sc3c(OCC)nc(N5CCNCC5)nc34)cc2)cc1 [4-(4-Ethoxy-9-methyl-2-piperazin-1-yl-thieno[2,3-d:4,5-d′]dipyrimidin-7-yl)-biphenyl-4′-carboxylic acid ethyl ester] | 2 to 50 nM
19 | CCOc1nc(N2CCNCC2)nc2c1sc1nc(-c3ccc(-c4ccc(C(=O)O)cc4)cc3)nc(C)c12 [4-(4-Ethoxy-9-methyl-2-piperazin-1-yl-thieno[2,3-d:4,5-d′]dipyrimidin-7-yl)-biphenyl-4′-carboxylic acid sodium salt] | 2 to 50 nM
20 | CCOc1nc(N2CCNCC2)nc2c1sc1nc(-c3ccc(NC(=O)OC)cc3)cc(C(F)(F)F)c12 [4-(4-Ethoxy-9-trifluoromethyl-2-piperazin-1-yl-pyrido[3′,2′:4,5]thieno[3,2-d]pyrimidin-7-yl)-phenyl-carbamic acid methyl ester] | < 2 nM
21 | CCOc1nc(N2CCNCC2)nc2c1sc1nc(-c3ccc(N4CCCCC4)cc3)cc(C(F)(F)F)c12 [4-Ethoxy-2-(piperazin-1-yl)-7-(4-(piperidin-1-yl)phenyl)-9-trifluoromethyl-pyrido[3′,2′:4,5]thieno[3,2-d]pyrimidine] | < 2 nM
22 | CCOc1nc(N2CCNCC2)nc2c1sc1nc(-c3ccccn3)cc(C(F)(F)F)c12 [4-Ethoxy-2-piperazin-1-yl-7-(2-pyridyl)-9-trifluoromethyl-pyrido[3′,2′:4,5]thieno[3,2-d]pyrimidine] | 2 to 50 nM
23 | CCOc1nc(N2CCNCC2)nc2c1sc1nc(-c3cc(OC)c(OC)c(OC)c3)cc(C(F)(F)F)c12 [4-Ethoxy-2-piperazin-1-yl-9-trifluoromethyl-7-(3,4,5-trimethoxy-phenyl)-pyrido[3′,2′:4,5]thieno[3,2-d]pyrimidine] | 2 to 50 nM
24 | CCOc1nc(N2CCNCC2)nc2c1sc1nc(C(C)C)cc(C(C)C)c12 [4-Ethoxy-7,9-di-iso-propyl-2-(piperazin-1-yl)-pyrido[3′,2′:4,5]thieno[3,2-d]pyrimidine] | 2 to 50 nM
25 | CCOc1nc(N2CCNCC2)nc2c1sc1nc(-c3ccc(OC)c(OC)c3)cc(C)c12 [4-Ethoxy-7-(3,4-dimethoxy-phenyl)-9-methyl-2-(piperazin-1-yl)-pyrido[3′,2′:4,5]thieno-[3,2-d]pyrimidine] | 2 to 50 nM
26 | CCOc1nc(N2CCNCC2)nc2c1sc1nc(-c3ccc4c(c3)OCO4)cc(C(F)(F)F)c12 [4-Ethoxy-7-(3,4-methylenedioxyphenyl)-2-piperazin-1-yl-9-trifluoromethyl-pyrido[3′,2′:4,5]thieno-[3,2-d]pyrimidine] | < 2 nM
27 | CCOc1nc(N2CCNCC2)nc2c1sc1nc(-c3cccc([N+](=O)[O-])c3)cc(C(F)(F)F)c12 [4-Ethoxy-7-(3-nitro-phenyl)-2-piperazin-1-yl-9-trifluoromethyl-pyrido[3′,2′:4,5]thieno[3,2-d]pyrimidine] | < 2 nM
28 | CCOc1nc(N2CCNCC2)nc2c1sc1nc(-c3ccc(-n4cccn4)cc3)cc(C(F)(F)F)c12 [4-Ethoxy-7-(4-(1H-pyrazol-1-yl)-phenyl)-2-piperazin-1-yl-9-trifluoromethyl-pyrido[3′,2′:4,5]thieno[3,2-d]pyrimidine] | < 2 nM
29 | CCOc1nc(N2CCNCC2)nc2c1sc1nc(-c3ccc(-n4cccn4)cc3)cc(CC)c12 [4-Ethoxy-7-(4-(1H-pyrazol-1-yl)-phenyl)-9-ethyl-2-piperazin-1-yl-pyrido[3′,2′:4,5]thieno[3,2-d]pyrimidine] | < 2 nM
30 | CCOc1nc(N2CCNCC2)nc2c1sc1nc(-c3ccc(-c4ccco4)cc3)nc(C)c12 [4-Ethoxy-7-(4-[2-furyl]-phenyl)-9-methyl-2-piperazin-1-yl-thieno[2,3-d:4,5-d′]dipyrimidine] | < 2 nM
31 | CCOc1nc(N2CCNCC2)nc2c1sc1nc(-c3ccc(C(O)c4cccnc4)cc3)nc(C)c12 (stereo not shown) [4-Ethoxy-7-(4-[hydroxy{3-pyridyl}methyl]-phenyl)-9-methyl-2-piperazin-1-yl-thieno[2,3-d:4,5-d′]dipyrimidine] | 2 to 50 nM
